# Experimental data taken from US10265286B2, “Sequelae of cardiopulmonary bypass-induced pulmonary injury” (Vanderbilt University, priority 2016, dated 2019).
# Columns and labels:
# Type in all cases: in vivo, human
# [1] = Phase IB study: postoperative invasive mechanical ventilation; conditions: for patients extubated in the operating room: Site 02
# Description: The duration of postoperative invasive mechanical ventilation was derived as the time in hours from separation from cardiopulmonary bypass until endotracheal extubation. If a patient required reintubation within 24 hours after extubation, the reintubation time was added in the main analysis. In a second analysis, the reintubation time was not included.
# [2] = Phase IB study: plasma nitric oxide (NO metabolite) concentrations; conditions: each of the treatment groups
# Description: Twenty two (22) patients were enrolled and treated. Patients received an IV citrulline bolus of 150 mg/kg or placebo at the initiation of CPB, followed by the addition of L-citrulline at a concentration of 200 μmol/L or placebo to the filtration or hemoconcentration replacement fluid used during CPB. A citrulline bolus of 20 mg/kg was administered 30 minutes after decannulation from CPB, immediately followed by a 9-mg/kg/hr continuous infusion of citrulline or placebo for 48 hours. Study participation ended at discharge or at Day 28 whichever came first.
# Plasma citrulline concentration levels were the primary PK variable; these were assessed in blood samples collected at 7 perioperative time points. Secondary PK variables were concentrations of arginine and nitric oxide (NO) metabolites in the same sample set. PK values were compared between groups.
# [3] = Randomized placebo controlled intravenous citrulline study, 77 patients (plasma citrulline target); conditions: citrulline removed by hemofiltration during CPB
# Text: An intravenous citrulline study conducted was a randomized, placebo controlled, double blind study with the primary clinical outcome being length of mechanical ventilation postoperatively and secondarily the incidence of postoperative pulmonary hypertension between the 2 treatment groups (citrulline vs placebo).
# A total of 77 patients were enrolled at Vanderbilt Children's Hospital. Patients were screened based on the surgical schedule. Based on this schedule, patients undergoing one of the 5 planned cardiac surgeries included in this study were screened (patients undergoing the Norwood procedure are now excluded at the recommendation of the DSMB).
smiles,measurement,setting,value
"NC(=O)NCCCC(N)C(=O)O (stereo not shown) [Citrulline, 2-amino-5-(carbamoylamino)pentanoic acid]","Duration of invasive mechanical ventilation, Diff (CI) placebo vs citrulline",[1]; Re-intubation time excluded,"19.5 (1.9, 37.2) hours"
same,"Duration of invasive mechanical ventilation, Mean ± SD",[1]; Re-intubation time excluded,5.1 ± 8.15 h
same,"Duration of invasive mechanical ventilation, Median",[1]; Re-intubation time excluded,0.0 h
same,"Duration of invasive mechanical ventilation, Range",[1]; Re-intubation time excluded,0.0 to 22.5 h
same,"Duration of invasive mechanical ventilation, Diff (CI) placebo vs citrulline",[1]; Re-intubation time included,"32.0 (−9.5, 73.4) hours"
same,"Duration of invasive mechanical ventilation, Median",[1]; Re-intubation time included,0.0 h
same,"Duration of invasive mechanical ventilation, Range",[1]; Re-intubation time included,0.0 to 22.5 h
same,"Duration of invasive mechanical ventilation, Mean ± SD","[1]; Re-intubation time included, N = 11",5.1 ± 8.15 h
same,"Duration of invasive mechanical ventilation, Mean ± SD","[1]; Re-intubation time included, N = 11, listed as citrulline",5 h
same,patients extubated in the operating room,[1]; placebo 2,6 patients
same,patients extubated in the operating room,[1]; placebo 33%,100%
same,plasma nitric oxide levels across the sampling time points,[2],remained more or less unchanged
same,attainment of sustained target plasma citrulline level of 100 μmol/L,[3],did not reach the therapeutic sustained target plasma citrulline level
